Laboratory results published in patent publication US5223507A, “Method of using opioid compounds as delta opioid selective agonist analgesics” (G. D. Searle & Co., priority 1992, dated 1993).
Counter-ions that a name gives are not always drawn. Like-named read-outs stand apart in the source and are kept apart here.

How the values were obtained:
δ opioid receptors = δ opioid receptors (Rattus norvegicus, UniProt P33533); assay: Opiate Binding Assay, displacement of 3[H]-DSLET (δ receptor); details: for Mean IC50 μ/δ Ratio: ratio of mean IC50 values for μ and δ opioid receptors; for Percent Inhibition, delta: rat forebrain membranes, 3[H]-DSLET
μ opioid receptors = μ opioid receptors (Rattus norvegicus, UniProt P33535); assay: Opiate Binding Assay, displacement of 3[H]-DAMGO (μ receptor); details: for Percent Inhibition, mu: at 100 nm, rat forebrain membranes, 3[H]-DAMGO
mice = assay: Phenylbenzoquinone (PBQ) Writhing Assay; type: in vivo, mouse (Charles River male albino mice); details: for ED50: Mus musculus, 0.5 h
Text: The Writhing Assay is one of the most widely-used experimental procedures for measuring the analgesic activity of different narcotic and nonnarcotic analgesic agents, and involves the continuous, chemically-induced pain of visceral origin to an animal, such as a mouse or rat. [Gyires et al., Arch. int. Pharmacodyn, 267, 131-140 (1984); C. Vander Wende et al., Fed. Proc., 15, 494 (1956); Koster et al., Fed. Proc., 18, 412 (1959); and Witken et al., J. PharmacoI. exp. Tger., 133, 400-408 (1961).] Chemicals which may be used to induce this pain include phenylbenzoquinone (PBQ) and acetic acid. As a result of the chemical irritation to the animal, a characteristic stretching and writhing of the animal (dorsiflexion of the animal's back, extension of its hindlimbs and the strong contraction of its abdominal musculature) will generally occur. […] Drugs which reduce the number of writhes of the animal appear to restore the normal nociceptive threshold of the animal.
Charles River male albino mice, weighing 20 to 30 grams were used in this assay.
Thirty minutes after subcutaneous or intragastric administration to ten mice of either 10 mg or 30 mg per kilogram of body weight of a compound of the present invention ("test compound"), […] of body weight of a 0.025% w/v solution of PBQ was injected intraperitoneally into each mouse. Ten mice which were given saline in place of a test compound of the invention were used as a control group.
Five minutes later, each mouse was individually placed into a glass beaker for observation, and the number of writhes occurring during the following ten-minute period was counted.
A test compound was considered to be "active" in this assay (to have produced analgesia in a mouse) if, after the administration of the compound to the mouse, the number of writhes elicited by a mouse injected with PBQ was equal to, or less than, one-half the median number of writhes recorded for the saline-treated control group of mice that day, as described by Taber in "Predictive Value of Analgesic Assays in Mice and Rats," Advances in Biochemical Psychopharmacology, 8, 191 (1974).
The standard initial screening doses of a test compound employed in this assay were 10 and/or 30 […] for both routes of administration.

[1] = po, intragastric, 30 min before PBQ, read-out: PBQ WRITHING ASSAY ED50 (mpk) I.G.
[2] = sc, subcutaneous, 30 min before PBQ, read-out: PBQ WRITHING ASSAY ED50 (mpk) S.C.
[3] = intragastric, 30 min before PBQ
[4] = subcutaneous, screening doses 10 and/or 30 mpk

Sequence of δ opioid receptors (P33533 whole entry): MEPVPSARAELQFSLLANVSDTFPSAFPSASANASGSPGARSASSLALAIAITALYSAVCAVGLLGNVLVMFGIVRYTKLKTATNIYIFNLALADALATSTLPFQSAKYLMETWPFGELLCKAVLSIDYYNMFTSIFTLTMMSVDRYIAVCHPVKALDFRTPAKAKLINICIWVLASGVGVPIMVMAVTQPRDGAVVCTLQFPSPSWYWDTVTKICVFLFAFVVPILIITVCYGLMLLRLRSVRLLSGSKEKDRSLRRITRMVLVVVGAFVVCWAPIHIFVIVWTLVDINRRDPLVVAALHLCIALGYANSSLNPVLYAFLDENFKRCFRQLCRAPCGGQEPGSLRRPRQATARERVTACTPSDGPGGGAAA
Sequence of μ opioid receptors (P33535 whole entry): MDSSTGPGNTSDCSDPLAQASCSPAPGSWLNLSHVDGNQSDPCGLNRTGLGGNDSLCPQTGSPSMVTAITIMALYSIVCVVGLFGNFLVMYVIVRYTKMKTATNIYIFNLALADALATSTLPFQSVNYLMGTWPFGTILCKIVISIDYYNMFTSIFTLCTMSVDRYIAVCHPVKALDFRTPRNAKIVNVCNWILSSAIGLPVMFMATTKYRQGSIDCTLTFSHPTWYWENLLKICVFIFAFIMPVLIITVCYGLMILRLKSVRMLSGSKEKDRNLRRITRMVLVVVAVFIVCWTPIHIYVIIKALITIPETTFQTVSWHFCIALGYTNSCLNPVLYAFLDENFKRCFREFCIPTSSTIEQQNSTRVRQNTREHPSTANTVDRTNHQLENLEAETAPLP

| SMILES | IC50 (δ opioid receptors) | Mean IC50 μ/δ Ratio (δ opioid receptors) | IC50 (μ opioid receptors) | also measured |
| --- | --- | --- | --- | --- |
| CN1CC[C@]23c4c5ccc(O)c4O[C@H]2c2[nH]c4ccccc4c2C[C@@]3(O)[C@H]1C5 [I, 5,6,7,8,14,14bβ-Hexahydro-7-methyl-4,8(R,α)-methano-4bS^* -benzofuro[2,3-a]pyrido[4,3-b]carbazole-1, 8aβ(9H)-diol, monohydrochloride] | 2.6 nM | 58 | 152 nM |  |
| CN1CC[C@]23c4c5ccc(O)c4O[C@H]2c2oc4ccccc4c2C[C@@]3(O)[C@H]1C5 [II, 6,7,8,14bβ-Tetrahydro-7-methyl-4,8(R,α)-methano-4bS^* -5H-bisbenzofuro[3,2-e:2',3'-g]isoquinoline-1, 8aβ(9H)-diol, monohydrochloride] | 5.4 nM | 17 | 93 nM | ED50 (mice; [1]): 2.4 mg/kg; ED50 (mice; [2]): 0.2 mg/kg |
| CN1CC[C@]23c4c5ccc(O)c4O[C@H]2c2[nH]c4c(ccc6ccccc64)c2C[C@@]3(O)[C@H]1C5 [III, 5,6,7,8,16, 16bβ-Hexahydro-7-methyl-4,8(R, α)-methano-4BS^* -benzo[i]benzofuro [2,3-a]pyrido[4,3-b]carbazole-1,8aβ(9H)-diol, monohydrochloride] | 20.8 nM | 26 | 550 nM | PBQ WRITHING ASSAY ED50 (mpk) I.G. (mice; [3]): inactive; Number of mice in 10 exhibiting inhibition of writhing, S.C. (mice; [4]): 5/10 |
| COc1ccc2c3c1O[C@H]1c4oc5ccccc5c4C[C@@]4(OC)[C@@H](C2)N(C)CC[C@]314 [IV, 2 6,7,8,14bβ-Hexahydro-1,8aβ-(9H)-dimethoxy-7-methyl-4,8(R,α)-methano-4bS^* -5H-bisbenzofuro [3,2-e:2',3'-g]isoquinoline] | 43.5 nM | 446 | 21200 nM | ED50 (mice; [1]): 2.2 mg/kg; Number of mice in 10 exhibiting inhibition of writhing, S.C. (mice; [4]): 6/10 |
| C=CCN1CC[C@]23c4c5ccc(O)c4O[C@H]2c2oc4ccccc4c2C[C@@]3(O)[C@H]1C5 [IX, 6,7,8,14β-Tetrahydro-7-(2-propenyl)-4,8(R,α)-methano-4bS^* -5H-bisbenzofuro[3,2-e:2',3'-g] isoquinoline-1,8aβ(9H)-diol, monohydrochloride] | 0.21 nM | 1100 | 236 nM | ED50 (mice; [1]): 3.9 mg/kg; ED50 (mice; [2]): 2.8 mg/kg |
| COc1ccc2c3c1O[C@H]1c4oc5ccccc5c4C[C@@]4(O)[C@@H](C2)N(C)CC[C@]314 [V, 6,7,8,14bβ-Tetrahydro-1-methoxy-7-methyl-4,8(R,α)-methano-4bS^* -5H-bisbenzofuro [3,2-e:2',3'-g]isoquinolin-8aβ(9H)-ol] |  |  |  | Percent Inhibition, delta (δ opioid receptors; at 100 nm): 72%; Percent Inhibition, mu (μ opioid receptors): 2%; ED50 (mice; [1]): 2.7 mg/kg; PBQ WRITHING ASSAY ED50 (mpk) S.C. (mice; subcutaneous, 30 min before PBQ): inactive |
| CN1CC[C@]23c4c5ccc(O)c4O[C@H]2c2[nH]c4c(Br)cc(Br)cc4c2C[C@@]3(O)[C@H]1C5 [VI, 11,13-Dibromo-5,6,7,8,14,14bβ-hexahydro-7-methyl-4,8(R,α)-methano-4bS^* -benzofuro[2,3-a]pyrido[4,3-b] carbazole-1,8aβ(9H)-diol, monohydrochloride] |  |  |  | Percent Inhibition, delta (δ opioid receptors; 10 nm): 11%; PBQ WRITHING ASSAY ED50 (mpk) I.G. (mice; [3]): inactive; Number of mice in 10 exhibiting inhibition of writhing, S.C. (mice; [4]): 6/10 |
| CN1CC[C@]23c4c5ccc(O)c4O[C@H]2c2[nH]c4c(Br)cccc4c2C[C@@]3(O)[C@H]1C5 [VII, 13-Bromo-5,6,7,8,14bβ-hexahydro-7-methyl-4,8(R,α)-methano-4bS^* -benzofuro[2,3-a]pyrido [4,3-b]carbazole-1,8aβ(9H)-diol, monohydrochloride] | 10 nM | 25.3 | 253 nM | ED50 (mice; [1]): 2.3 mg/kg; ED50 (mice; [2]): 0.9 mg/kg |
| C=CCN1CC[C@]23c4c5ccc(O)c4O[C@H]2c2[nH]c4ccccc4c2C[C@@]3(O)[C@H]1C5 [VIII, 5,6,7,8,14,14bβ-Hexahydro-7(2-propenyl)-4,8 (R,α)-methano-4bS^* -benzofuro[2,3-a]pyrido[4,3-b] carbazole-1,8aβ(9H)-diol, monohydrochloride] | 1.4 nM | 71 | 99 nM |  |
| C=CCN1CC[C@]23c4c5ccc(O)c4O[C@H]2c2[nH]c4c(Br)cccc4c2C[C@@]3(O)[C@H]1C5 [X, 13-Bromo-5,6,7,8,14, 14bβ-hexahydro-7-(2-propenyl)-4,8(R,α)-methano-4bS^* -benzofuro [2,3-a]pyrido[4,3-b]carbazole-1,8aβ(9H)-diol monohydrochloride] | 11.1 nM | 350 | 3900 nM | Number of mice in 10 exhibiting inhibition of writhing, I.G. (mice; intragastric, screening doses 10 and/or 30 mpk): 5/10; Number of mice in 10 exhibiting inhibition of writhing, S.C. (mice; [4]): 5/10 |
| CN1CC[C@]23c4c5ccc(O)c4O[C@H]2c2oc4ccccc4c2C[C@H]3[C@H]1C5 [XI, 6,7,8,8a,9,14bβ-Hexahydro-7-methyl-4,8(R,α)-methano-4bs^* -5H-bisbenzofuro[3,2-e:2',3'-g] isoquinolin-1-ol, monohydrochloride] | 3.5 nM | 6.9 | 24 nM | ED50 (mice; [2]): 2 mg/kg; PBQ WRITHING ASSAY ED50 (mpk) I.G. (mice; [3]): inactive |
| CN1CC[C@]23c4c5ccc(O)c4O[C@H]2c2[nH]c4ccccc4c2C[C@H]3[C@H]1C5 [XII, 5,6,7,8,8a,9,14, 14bβ-Octahydro-7-methyl-4,8(R,α)-methano-4bS^* -benzofuro[2,3-a] pyrido[4,3-b]carbazol-1-ol, monohydrochloride] | 4.9 nM | 11.8 | 58 nM |  |
| CN1CC[C@]23c4c5ccc(O)c4O[C@H]2c2[nH]c4c(Br)cccc4c2C[C@H]3[C@H]1C5 [XIII, 13-Bromo-5,6,7,8,8a,9,14,14bβ-octahydro-7-methyl-4,8(R,α)-methano-4bS^* -benzofuro [2,3-a]pyrido[4,3-b]carbazol-1-ol, monohydrochloride] | 52 nM | 5.1 | 265 nM | PBQ WRITHING ASSAY ED50 (mpk) I.G. (mice; [3]): inactive; Number of mice in 10 exhibiting inhibition of writhing, S.C. (mice; [4]): 4/10 |
| CCCN1CC[C@]23c4c5ccc(O)c4O[C@H]2c2oc4ccccc4c2C[C@@]3(O)[C@H]1C5 [XIV, 6,7,8,14bβ-Tetrahydro-7-propyl-4,8(R,α)-methano-4bS^* -5H-bisbenzofuro[3,2-e:2',3'-g] isoquinoline-1,8aβ(9H)-diol, monohydrochloride] | 7.7 nM | 26 | 200 nM |  |
| CC(=O)O[C@@]12Cc3c([nH]c4ccccc34)[C@@H]3Oc4c(O)ccc5c4[C@@]31CCN(C)[C@@H]2C5 [XIX, 5,6,7,8,14,14bβ-Hexahydro-7-methyl-4,8(R,α-methano-4bS^* -benzofuro[2,3-a]pyrido[4,3-b]carbazole-1,8aβ-9H)-dio1,8a-acetate monohydrochloride] | 1 nM | 769 | 769 nM |  |
| Oc1ccc2c3c1O[C@H]1c4oc5ccccc5c4C[C@@]4(O)[C@@H](C2)N(CC2CCC2)CC[C@]314 [XV, 6,7,8,14bβ-Tetrahydro-7-(cyclobutylmethyl)-4,8 (R,α)-methano-4bS^* -5H-bisbenzofuro [3,2-e:2',3'-g]isoquinoline-1,8aβ(9H)-diol, monohydrochloride] | 5.1 nM | 135 | 690 nM |  |
| CC(=O)Oc1ccc2c3c1O[C@H]1c4[nH]c5ccccc5c4C[C@@]4(O)[C@@H](C2)N(C)CC[C@]314 [XVII, 5,6,7,8,14,14bβ-Hexahydro-7-methyl-4,8 (R,α)-methano-4bS^* -benzofuro[2,3-a] pyrido[4,3-b]carbazole-1,8aβ(9H)-diol, 1-acetate] | 34 nM | 38 | 1300 nM |  |
| CC(=O)Oc1ccc2c3c1O[C@H]1c4[nH]c5ccccc5c4C[C@@]4(OC(C)=O)[C@@H](C2)N(C)CC[C@]314 [XVIII, 5,6,7,8,14,14bβ-Hexahydro-7-methyl-4,8(R,α)-methano-4bS^* -benzofuro[2,3-a] pyrido[4,3-b]carbazole-1,8aβ-9H)-diol, diacetate, monohydrochloride] | 66.4 nM |  |  | Percent Inhibition, mu (μ opioid receptors): 72% |
